Counter-ions that a name gives are not always drawn.
Key:
[1] = Rat pharmacokinetics, oral gavage, plasma by LC-MS/MS; assay type: in vivo, Sprague-Dawley rats
[2] = Dog pharmacokinetics, oral powder in capsule; assay type: in vivo, beagle dogs; conditions: for AUCinf / AUClast: single 3 mg/kg, powder in capsule, mean, 3 mg/kg, in ng·h/mL
Experimental: Groups, Dosing, and Collection. The pharmacokinetics of the free acid and the tris salt of the compound of Formula I administered by oral capsules was assessed in dogs. Three male beagle dogs were administered a single dose of 3 mg/kg free acid on Day 1 of the study, and a single dose of 3 mg/kg tris salt on Day 8 of the study. Plasma was collected pre-dose, and at 0.5, 1, 2, 4, 8, 12 and 24 hours post-dose via puncture of peripheral veins.
(§1) LC MS-MS Analysis. Liquid Chromatography with tandem mass spectrometry was used to determine plasma concentrations of the compound of Formula I free acid and the tris salt in plasma samples collected at prescribed time points. Instrumentation included YMC-Triart C18, S-5 μm (50×2.1 mm) HPLC column, liquid chromatograph Shimadzu LC-30AD with communications bus module CBM-20A and Auto SIL-20AC HT; and a Triple Quad 5500 LC/MS/MS instrument. Tolbutamide was used as an internal standard.

[3] = Dog pharmacokinetics, oral gavage of suspension (0.5% methylcellulose in saline); assay type: in vivo; conditions: male beagle dogs; for AUC(0-inf) / AUC(0-t): dog, plasma, oral gavage suspension, mean
Experimental: In a follow-up study, the pharmacokinetics of tris salt of the compound of Formula I were investigated via oral gavage of a 0.5% methylcellulose in saline formulation. Two groups of animals were tested. In Group 1, three male beagle dogs were administered a single dose of 3 mg/kg tris salt. In Group 2, three male beagle dogs were administered a single dose of 30 mg/kg tris salt. Plasma was collected pre-dose, and at 0.5, 1, 2, 4, 8, 12 and 24 hours post-dose via puncture of peripheral veins.
as §1

MCT4 = MCT4 (Homo sapiens, UniProt O15427); conditions: affinity of MCT4 for lactate; cited from earlier work
[4] = rat male, 20 mg/kg free acid, oral gavage, mean
[5] = male beagle dogs, listed as Salt

Sequence of MCT4 (O15427 whole entry): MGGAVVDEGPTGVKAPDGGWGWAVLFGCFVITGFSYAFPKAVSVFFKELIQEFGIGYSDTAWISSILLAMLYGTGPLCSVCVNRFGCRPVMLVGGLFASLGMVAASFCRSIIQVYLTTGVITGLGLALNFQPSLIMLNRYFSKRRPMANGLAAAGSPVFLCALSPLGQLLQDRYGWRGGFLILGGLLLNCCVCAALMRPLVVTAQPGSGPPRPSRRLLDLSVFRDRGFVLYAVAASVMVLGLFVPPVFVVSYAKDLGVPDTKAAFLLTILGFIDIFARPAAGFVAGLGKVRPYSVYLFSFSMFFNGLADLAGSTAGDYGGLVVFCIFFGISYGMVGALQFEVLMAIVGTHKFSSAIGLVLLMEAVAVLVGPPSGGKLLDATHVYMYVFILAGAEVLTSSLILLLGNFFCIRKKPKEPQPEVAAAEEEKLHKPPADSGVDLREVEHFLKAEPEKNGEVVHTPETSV

For CC(C)(OCc1cc(-c2cccc(OC3CCC3)c2)n(-c2ccccc2N2CCC2)n1)C(=O)O [Free Acid, 2-([1-[2-(azetidin-1-yl)phenyl]-5-(3-cyclobutoxyphenyl)-1H-pyrazol-3-yl]methoxy)-2-methylpropanoic acid], the “AUC—% Extrap_obs” value ([1]; rat female, 20 mg/kg free acid, oral gavage, mean) was 9.9%, the “AUC—% Extrap_obs” value ([1]; rat female, 60 mg/kg free acid, oral gavage, mean) was 16.7% and the “AUC—% Extrap_obs” value ([1]; rat female, 200 mg/kg free acid, oral gavage, mean) was 22.1%. For the same compound, the AUClast/D [1, 4] was 8332 ng·h/mL, the “AUC—% Extrap_obs” value [1, 4] was 0.61% and the “AUC—% Extrap_obs” value ([1]; rat male, 60 mg/kg free acid, oral gavage, mean) was 0.477%. The “AUC—% Extrap_obs” value ([1]; rat male, 200 mg/kg free acid, oral gavage, mean) was 0.704%, the clinical symptoms ([1]; rats, single oral gavage, all dose groups) was “No abnormal clinical symptoms” and the clinical symptoms ([2]; male beagle dogs, single 3 mg/kg oral capsule) was “No abnormal clinical symptoms”. For the same compound, the AUCinf ([2]; male beagle dogs) was 1265 and the AUClast ([2]; male beagle dogs) was 1215.

Work on CC(C)(OCc1cc(-c2cccc(OC3CCC3)c2)n(-c2ccccc2N2CCC2)n1)C(=O)O [Tris Salt] yielded an AUC(0-inf) ([3]; 3 mg/kg) of 5200 ng·h/mL, an AUC(0-t) ([3]; 3 mg/kg) of 5080 ng·h/mL and an AUC(0-inf) ([3]; 30 mg/kg) of 56800 ng·h/mL. The AUC(0-t) ([3]; 30 mg/kg) was 41300 ng·h/mL, the clinical symptoms ([3]; single 3 or 30 mg/kg oral gavage) was “No abnormal clinical symptoms” and the “AUC—% Extrap_obs” value ([1]; rat female, 25 mg/kg tris salt, oral gavage, mean) was 9%. The “AUC—% Extrap_obs” value ([1]; rat female, 75 mg/kg tris salt, oral gavage, mean) was 18.5%, the “AUC—% Extrap_obs” value ([1]; rat female, 250 mg/kg tris salt, oral gavage, mean) was 59.9% and the “AUC—% Extrap_obs” value ([1]; rat male, 25 mg/kg tris salt, oral gavage, mean) was 1.28%. The “AUC—% Extrap_obs” value ([1]; rat male, 75 mg/kg tris salt, oral gavage, mean) was 0.473%, the “AUC—% Extrap_obs” value ([1]; rat male, 250 mg/kg tris salt, oral gavage, mean) was 26.5% and the “total drug exposure across time (AUClast and AUCInf) versus free acid groups” value ([1]; rats, male and female) was “higher”. The “Maximum exposure levels (Cmax) versus free acid groups” value ([1]; rats, male and female, except females at 20/25 mg/kg) was “higher”, the “total drug exposure across time (AUClast and AUCInf) compared to the free acid” value ([2]; dogs, powder in capsule and suspension formulations) was “higher” and the AUCinf [2, 5] was 4092. It also gave an AUClast [2, 5] of 3924.

In the case of CC(O)C(=O)O (stereo not shown) [lactate], the Km (MCT4) is given as 28 mM.
